We go through 17 compounds from US20230257372A1 (CHONG KUN DANG PHARMACEUTICAL CORP., priority 2020, published 2023).

One assay addresses T1, human recombinant HDAC1 (Homo sapiens, UniProt Q13547).
T1 construct: purchased Enzo Life Science, Inc. BML-SE456
The assay is described as follows: HDAC1 enzyme activity inhibition (HDAC Fluorimetric Drug Discovery Kit). The format is biochemical. The settings on record: read-out: HDAC1. In short, it runs like this: (§1)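 Enzyme at 0.3 µg per well was reacted with 10 μM fluorogenic substrate in presence of 5-fold diluted compound, 30° C for 60 min.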

For the next assay, the target named is T2, human recombinant HDAC6 (Homo sapiens, UniProt Q9UBN7).
T2 construct: purchased Calbiochem Inc. 382180
T2 sequence (Q9UBN7 1-1215): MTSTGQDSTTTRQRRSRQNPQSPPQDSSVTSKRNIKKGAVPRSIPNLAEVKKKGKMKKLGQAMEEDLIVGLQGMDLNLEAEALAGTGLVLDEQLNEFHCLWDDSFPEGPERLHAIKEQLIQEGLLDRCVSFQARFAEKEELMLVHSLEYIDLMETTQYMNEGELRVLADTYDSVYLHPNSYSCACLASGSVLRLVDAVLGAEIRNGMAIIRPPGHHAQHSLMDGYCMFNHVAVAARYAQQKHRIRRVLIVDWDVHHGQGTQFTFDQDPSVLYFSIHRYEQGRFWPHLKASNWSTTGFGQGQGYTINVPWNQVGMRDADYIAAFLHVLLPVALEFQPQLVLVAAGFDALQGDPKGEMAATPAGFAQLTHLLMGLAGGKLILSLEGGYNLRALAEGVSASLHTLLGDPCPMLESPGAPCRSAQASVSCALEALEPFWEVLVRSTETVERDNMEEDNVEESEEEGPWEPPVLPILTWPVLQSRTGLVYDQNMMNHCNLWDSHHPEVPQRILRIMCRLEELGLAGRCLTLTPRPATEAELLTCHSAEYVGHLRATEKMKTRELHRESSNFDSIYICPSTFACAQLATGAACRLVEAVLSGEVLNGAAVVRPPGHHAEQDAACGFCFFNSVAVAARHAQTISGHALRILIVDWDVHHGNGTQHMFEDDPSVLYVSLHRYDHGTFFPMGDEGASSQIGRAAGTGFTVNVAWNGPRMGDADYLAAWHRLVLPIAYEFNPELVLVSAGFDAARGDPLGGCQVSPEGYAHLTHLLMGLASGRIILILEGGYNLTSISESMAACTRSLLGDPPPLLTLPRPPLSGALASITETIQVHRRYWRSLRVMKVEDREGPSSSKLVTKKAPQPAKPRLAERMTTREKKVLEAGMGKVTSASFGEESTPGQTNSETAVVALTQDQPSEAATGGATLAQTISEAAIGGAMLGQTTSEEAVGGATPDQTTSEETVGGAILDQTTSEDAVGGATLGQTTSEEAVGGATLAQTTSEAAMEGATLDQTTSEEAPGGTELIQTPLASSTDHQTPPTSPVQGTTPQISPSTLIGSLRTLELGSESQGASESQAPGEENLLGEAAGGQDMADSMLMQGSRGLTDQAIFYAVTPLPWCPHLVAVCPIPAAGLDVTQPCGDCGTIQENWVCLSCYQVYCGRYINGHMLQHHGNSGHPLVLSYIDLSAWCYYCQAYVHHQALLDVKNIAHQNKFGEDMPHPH
The assay can be described thus: HDAC6 enzyme activity inhibition (HDAC Fluorimetric Drug Discovery Kit). Format: biochemical. The method, boiled down:
as §1

Where [1] appears, read: human recombinant HDAC1, IC50 calculated with GraphPad Prism.
[2] abbreviates: human recombinant HDAC6, IC50 calculated with GraphPad Prism.
[3] abbreviates: human recombinant HDAC1, Fluor de Lys substrate, 30° C. 60 minutes.
Where [4] appears, read: human recombinant HDAC6, same protocol as HDAC1.

Read-outs that look alike come from different tables or passages of the source. Where only a bound is given, the exact number is not on record here.

T1 sequence (Q13547 whole entry): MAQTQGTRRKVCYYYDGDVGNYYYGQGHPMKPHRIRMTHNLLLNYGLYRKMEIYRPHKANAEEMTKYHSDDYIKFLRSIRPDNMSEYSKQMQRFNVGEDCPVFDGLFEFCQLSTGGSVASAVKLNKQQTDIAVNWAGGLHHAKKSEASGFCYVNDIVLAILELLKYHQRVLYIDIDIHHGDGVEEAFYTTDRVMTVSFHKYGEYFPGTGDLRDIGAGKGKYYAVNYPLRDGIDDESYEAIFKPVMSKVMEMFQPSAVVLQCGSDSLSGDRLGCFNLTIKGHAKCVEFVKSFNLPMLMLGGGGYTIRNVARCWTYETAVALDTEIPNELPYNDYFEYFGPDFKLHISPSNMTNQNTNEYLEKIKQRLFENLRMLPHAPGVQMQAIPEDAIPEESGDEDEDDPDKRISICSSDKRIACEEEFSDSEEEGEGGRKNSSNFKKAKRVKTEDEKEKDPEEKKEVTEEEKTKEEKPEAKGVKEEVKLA

On to `CC(C)(C)OC(=O)N1CC(c2cn(Cc3ccc(-c4nnc(C(F)F)o4)cn3)nn2)C1` [Compound 3926, Tert-butyl 3-(1-((5-(5-(difluoromethyl)-1,3,4-oxadiazol-2-yl)pyridin-2-yl)methyl)-1H-1,2,3-triazol-4-yl)azetidin-1-carboxylate], for which the IC50 on human recombinant HDAC1 (setting [1]) is over 50 µM; on human recombinant HDAC6 (setting [2]) it was 162 nM. Besides, the “HDAC6 selectivity (fold)” value at human recombinant HDAC6 (HDAC1 IC50 / HDAC6 IC50) is listed as 308 fold.

For the compound `FC(F)c1nnc(-c2ccc(Cn3cc(-c4ccc5cn[nH]c5c4)nn3)nc2)o1` [Compound 4340, 2-(6-((4-(1H-indazol-6-yl)-1H-1,2,3-triazol-1-yl)methyl)pyridin-3-yl)-5-(difluoromethyl)-1,3,4-oxadiazole], the IC50 is over 50 µM at human recombinant HDAC1 (setting [1]) and 6.6 nM on human recombinant HDAC6 (setting [2]). Also, the “HDAC6 selectivity (fold)” value on human recombinant HDAC6 (HDAC1 IC50 / HDAC6 IC50) was 7575 fold.

Regarding `Fc1cc(-c2nnc(C(F)F)o2)ccc1Cn1cc(-c2cccc3c2CN(C2CCC2)C3)nn1` [Compound 4537, 2-(4-((4-(2-cyclobutylisoindolin-4-yl)-1H-1,2,3-triazol-1-yl)methyl)-3-fluorophenyl)-5-(difluoromethyl)-1,3,4-oxadiazole], the IC50 on human recombinant HDAC1 (setting [3]) is over 50 µM; at human recombinant HDAC6 (setting [4]), 76 nM. Further, the “HDAC6 selectivity (fold)” value at human recombinant HDAC6 (HDAC6 over HDAC1) is 657 fold.

Regarding `Fc1c(-c2cn(Cc3ccc(-c4nnc(C(F)F)o4)cn3)nn2)cccc1N1CCN(CC2CC(F)(F)C2)CC1` [Compound 4601, 2-(6-((4-(3-(4-((3,3-difluorocyclobutyl)methyl)piperazin-1-yl)-2-fluorophenyl)-1H-1,2,3-triazol-1-yl)methyl)pyridin-3-yl)-5-(difluoromethyl)-1,3,4-oxadiazole], the figures for the IC50 at human recombinant HDAC1 (setting [3]) and at human recombinant HDAC6 (setting [4]) were over 50 µM and 35.9 nM, respectively. In addition, the “HDAC6 selectivity (fold)” value at human recombinant HDAC6 (HDAC6 over HDAC1) is on record as 1392 fold.

As for `FC(F)c1nnc(-c2ccc(Cn3cc(-c4ccc5[nH]cc(CN6CCOCC6)c5c4)nn3)cc2)o1` [Compound 4186, 4-((5-(1-(4-(5-(difluoromethyl)-1,3,4-oxadiazol-2-yl)benzyl)-1H-1,2,3-triazol-4-yl)-1H-indol-3-yl)methyl)morpholine], the IC50 on human recombinant HDAC1 (setting [1]) is over 50 µM; at human recombinant HDAC6 (setting [2]) it was 11.2 nM. The “HDAC6 selectivity (fold)” value on human recombinant HDAC6 (HDAC1 IC50 / HDAC6 IC50) is 4464 fold.

In the case of `Cc1ccc(-c2cn(Cc3ccc(-c4nnc(C(F)F)o4)cc3F)nn2)cc1` [Compound 3733, 2-(difluoromethyl)-5-(3-fluoro-4-((4-(p-tolyl)-1H-1,2,3-triazol-1-yl)methyl)phenyl)-1,3,4-oxadiazole], the figures for the IC50 on human recombinant HDAC1 (setting [1]) and on human recombinant HDAC6 (setting [2]) were over 50 µM and 232 nM, respectively. In addition, on human recombinant HDAC6 (HDAC1 IC50 / HDAC6 IC50), the “HDAC6 selectivity (fold)” value was 215 fold.

For `CN(C)C(C)(C)C(=O)Nc1cccc(-c2cn(Cc3ccc(-c4nnc(C(F)F)o4)cc3)nn2)c1` [Compound 4351, N-(3-(1-(4-(5-(difluoromethyl)-1,3,4-oxadiazol-2-yl)benzyl)-1H-1,2,3-triazol-4-yl)phenyl)-2-(dimethylamino)-2-methylpropanamide], the IC50 was over 50 µM at human recombinant HDAC1 (setting [1]) and 41.9 nM at human recombinant HDAC6 (setting [2]). Further, the “HDAC6 selectivity (fold)” value at human recombinant HDAC6 (HDAC1 IC50 / HDAC6 IC50) is recorded as 1193 fold.

On to `Fc1cc(-c2nnc(C(F)F)o2)ccc1Cn1cc(-c2ccc(F)c(N3CCN(C4CCC4)CC3)c2)nn1` [Compound 4426, 2-(4-((4-(3-(4-cyclobutylpiperazin-1-yl)-4-fluorophenyl)-1H-1,2,3-triazol-1-yl)methyl)-3-fluorophenyl)-5-(difluoromethyl)-1,3,4-oxadiazole], for which the IC50 at human recombinant HDAC1 (setting [1]) was over 50 µM; on human recombinant HDAC6 (setting [2]) it was 150 nM. Moreover, the “HDAC6 selectivity (fold)” value on human recombinant HDAC6 (HDAC1 IC50 / HDAC6 IC50) came to 334 fold.

`CCN1CCN(Cc2ccc(-c3cn(Cc4ccc(-c5nnc(C(F)F)o5)cn4)nn3)cc2)CC1` [Compound 4563, 2-(difluoromethyl)-5-(6-((4-(4-((4-ethylpiperazin-1-yl)methyl)phenyl)-1H-1,2,3-triazol-1-yl)methyl)pyridin-3-yl)-1,3,4-oxadiazole]: the IC50 is over 50 µM on human recombinant HDAC1 (setting [3]) and 22.5 nM on human recombinant HDAC6 (setting [4]). Moreover, the “HDAC6 selectivity (fold)” value on human recombinant HDAC6 (HDAC6 over HDAC1) was determined as 2222 fold.

For `CC(C)N1CCC(c2cn(Cc3ccc(-c4nnc(C(F)F)o4)cn3)nn2)CC1` [Compound 3808, 2-(difluoromethyl)-5-(6-((4-(1-isopropylpiperidin-4-yl)-1H-1,2,3-triazol-1-yl)methyl)pyridin-3-yl)-1,3,4-oxadiazole], the IC50 at human recombinant HDAC1 (setting [1]) is over 50 µM; on human recombinant HDAC6 (setting [2]), 348 nM. The “HDAC6 selectivity (fold)” value on human recombinant HDAC6 (HDAC1 IC50 / HDAC6 IC50) was determined as 143 fold.

In the case of `CC(C)N1CCC(F)(c2cn(Cc3ccc(-c4nnc(C(F)F)o4)cn3)nn2)CC1` [Compound 4007, 2-(difluoromethyl)-5-(6-((4-(4-fluoro-1-isopropylpiperidin-4-yl)-1H-1,2,3-triazol-1-yl)methyl)pyridin-3-yl)-1,3,4-oxadiazole], the values for the IC50 at human recombinant HDAC1 (setting [1]) and on human recombinant HDAC6 (setting [2]) were over 50 µM and 17.4 nM, respectively. Moreover, the “HDAC6 selectivity (fold)” value at human recombinant HDAC6 (HDAC1 IC50 / HDAC6 IC50) turned out to be 2873 fold.

Take `OCCCc1cn(Cc2ccc(-c3nnc(C(F)F)o3)cn2)nn1` [Compound 3833, 3-(1-((5-(5-(difluoromethyl)-1,3,4-oxadiazol-2-yl)pyridin-2-yl)methyl)-1H-1,2,3-triazol-4-yl)propan-1-ol]: the IC50 on human recombinant HDAC1 (setting [1]) is over 50 µM; on human recombinant HDAC6 (setting [2]), 424 nM. Besides, the “HDAC6 selectivity (fold)” value on human recombinant HDAC6 (HDAC1 IC50 / HDAC6 IC50) was 117 fold.

With `Fc1cc(-c2nnc(C(F)F)o2)cnc1Cn1cc(-c2cccs2)nn1` [Compound 17984, 2-(difluoromethyl)-5-(5-fluoro-6-((4-(thiophen-2-yl)-1H-1,2,3-triazol-1-yl)methyl)pyridin-3-yl)-1,3,4-oxadiazole], the IC50 on human recombinant HDAC1 (setting [3]) is over 50 µM; at human recombinant HDAC6 (setting [4]), 56.5 nM. Also, on human recombinant HDAC6 (HDAC6 over HDAC1), the “HDAC6 selectivity (fold)” value came to 884 fold.

For `Fc1cc(-c2cn(Cc3ncc(-c4nnc(C(F)F)o4)cc3F)nn2)ccc1CN1CCCC1` [Compound 18948, 2-(difluoromethyl)-5-(5-fluoro-6-((4-(3-fluoro-4-(pyrrolidin-1-ylmethyl)phenyl)-1H-1,2,3-triazol-1-yl)methyl)pyridin-3-yl)-1,3,4-oxadiazole], the IC50 is over 50 µM at human recombinant HDAC1 (setting [3]) and 58.4 nM on human recombinant HDAC6 (setting [4]). For the same compound, the “HDAC6 selectivity (fold)” value at human recombinant HDAC6 (HDAC6 over HDAC1) is listed as 856 fold.

Take `CN(C)CCC(=O)Nc1cccc(-c2cn(Cc3ccc(-c4nnc(C(F)F)o4)cn3)nn2)c1` [Compound 4229, N-(3-(1-((5-(5-(difluoromethyl)-1,3,4-oxadiazol-2-yl)pyridin-2-yl)methyl)-1H-1,2,3-triazol-4-yl)phenyl)-3-(dimethylamino)propanamide]: the figures for the IC50 at human recombinant HDAC1 (setting [1]) and on human recombinant HDAC6 (setting [2]) were over 50 µM and 28.7 nM, respectively. At human recombinant HDAC6 (HDAC1 IC50 / HDAC6 IC50), the “HDAC6 selectivity (fold)” value came to 1742 fold.

Consider `FC(F)c1nnc(-c2ccc(Cn3cc(-c4cccc(CN5CC(F)(F)C5)c4)nn3)cc2)o1` [Compound 4417, 2-(4-((4-(3-((3,3-difluoroazetidin-1-yl)methyl)phenyl)-1H-1,2,3-triazol-1-yl)methyl)phenyl)-5-(difluoromethyl)-1,3,4-oxadiazole], for which the IC50 on human recombinant HDAC1 (setting [1]) is over 50 µM; at human recombinant HDAC6 (setting [2]), 102 nM. The “HDAC6 selectivity (fold)” value at human recombinant HDAC6 (HDAC1 IC50 / HDAC6 IC50) was found to be 487 fold.

Take `CC1CCN(Cc2cccc(-c3cn(Cc4ncc(-c5nnc(C(F)F)o5)cc4F)nn3)c2)CC1` [Compound 18459]: the IC50 is over 50 µM at human recombinant HDAC1 (setting [3]) and 64.2 nM on human recombinant HDAC6 (setting [4]). Besides, the “HDAC6 selectivity (fold)” value at human recombinant HDAC6 (HDAC6 over HDAC1) was determined as 778 fold.
